Data from patent publication US20220089541A1, “Compounds for the Treatment of Kinase-Dependent Disorders” (Exelixis, Inc., priority 2019, published 2022).

Assays:
[1] = Microsomal assay, human liver microsome stability; settings: liver microsomes, pH 7.4
Procedure: (§1) Liver microsomes tissue fractions were used for in vitro assessment of metabolic stability of compounds by cytochrome P450 (CYP450) (for example, CYP3A4, CYP2C9) mediated phase I oxidation, and metabolism through other pathways. Human, mouse, rat, and dog liver microsomes tissue fractions were obtained from Corning Gentest and BioreclamationIVT.
(§2) The assay was carried out in 96-well microtiter plates. Compounds were incubated (N=l) at 37° C. in the presence of liver microsomes. Reaction mixtures (25 μL) contained a final concentration of 1 μM test compound, 0.5 mg/mL liver microsomes (LM) protein, and 1 mM NADPH in 100 mM potassium phosphate, pH 7.4 buffer with 3.3 mM MgCl2. The extent of metabolism was calculated as the disappearance of the test compound, compared to the 0-min control reaction incubations. Verapamil was included as a positive control to verily assay performance.
(§3) At each of the four time points, 150 μL of quench solution (100% acetonitrile with 0.1% formic acid) with internal standard (bucetin for positive ESI mode) was transferred to each well. Plates were sealed and centrifuged at 10° C. for 15 minutes at 4000 rpm. The supernatant was transferred to fresh plates for LC/MS/MS analysis.
(§4) All samples were analyzed on LC/MS/MS using an AB Sciex API 4000 instrument, coupled to a Shimadzu LC-20AD LC Pump system. Analytical samples were separated using a Waters Atlantis T3 dC18 reverse phase HPLC column (20 mm×2.1 mm) at a flow rate of 0.5 mL/min. The mobile phase consisted of 0.1% formic acid in water (solvent A) and 0.1% formic acid in 100% acetonitrile (solvent B).

[2] = Microsomal assay, mouse liver microsome stability; settings: liver microsomes, pH 7.4
Procedure: as §1, §2, §3, §4

[3] = Microsomal assay, rat liver microsome stability; settings: liver microsomes, pH 7.4
Procedure: as §1, §2, §3, §4

Met = biological target: T1, Met (Homo sapiens, UniProt P08581); experiment: Met autophosphorylation ELISA in PC-3 cells; type: cell-based; settings: PC-3 prostate cancer cells, HGF-stimulated, phospho-Met ELISA, 1 h compound incubation; read-out: c-Met IC50
T1 construct: host or cells: PC-3 prostate cancer cells
Procedure: Example B: Met Autophosphorylation ELISA in PC-3 Cells
PC-3 prostate cancer cells (ATCC #CRL-1435) were seeded at 4×10^4 cells/well onto 24-well plates (Greiner #662165), in DMEM (Thermo Fisher #11995-040) containing 10% FBS (Thermo Fisher #26140-079), 1% MEM NEAA (Thermo Fisher #11140-050), 1% GlutaMax (Thermo Fisher #35050-061), and 1% Penicillin Streptomycin (Thermo Fisher #15140-122). PC-3 cells were incubated at 37° C., 5% CO2 for 24 h and then starved for 3 h in serum-free medium. Test compounds were serially diluted to produce an 8-point dose curve in fresh serum-free medium to a final concentration of 0.3% DMSO (vehicle) and added to the cells and incubated for 1 h. Cells were then stimulated with 100 ng/mL recombinant human HGF (R&D Systems #294-HG-250) for 10 min, washed with cold PBS, and immediately lysed with 130 μL of cold IX lysis buffer [20 mM Tris, 137 mM sodium chloride, 2 mM EDTA, 10% glycerol, 1% NP-40 alternative, 1 mM activated sodium orthovanadate, 1 mM PefaBloc SC (Sigma-Aldrich #11429868001), protease/phosphatase inhibitor tablet (Thermo Fisher #A32959)]. Lysates were clarified by centrifugation and 100 μL/well added into the PathScan phospho-Met (panTyr) Sandwich ELISA (Cell Signaling Technology #7333). Assay was performed according to manufacturer's instructions. Positive control wells (100% activity) contained HGF-stimulated, DMSO-treated cell lysates. Negative control wells (0% activity) contained HGF-stimulated, reference inhibitor-treated cell lysates. IC50 values were calculated by nonlinear regression analysis using a 4-parameter logistic curve fit in ActivityBase XE (IDBS).

KDR = biological target: T2, KDR (Homo sapiens, UniProt P35968); experiment: KDR autophosphorylation ELISA in HUVEC cells; type: cell-based; settings: VEGF165-stimulated, phospho-KDR ELISA, 1 h compound incubation
T2 construct: host or cells: HUVEC (human umbilical vein endothelial cells)
Procedure: Example C: KDR Autophosphorylation ELISA in HUVEC Cells
umbilical vein endothelial cells or HUVEC (Lonza #C2519A) were seeded at 2×10^4 cells/well onto 96-well plates (Corning #3904), in EGM-2 growth medium (Lonza #CC-3162) containing 1% Penicillin Streptomycin (Thermo Fisher #15140-122). HUVEC cells were incubated at 37° C., 5% CO2 for 24 h and then starved for 24 h in serum-free EBM-2 basal medium (Lonza #CC-3156) containing 1% Penicillin Streptomycin. Test compounds were serially diluted to produce an 8-point dose curve in fresh serum-free medium to a final concentration of 0.3% DMSO (vehicle) and added to the cells and incubated for 1 h. Cells were then stimulated with 100 ng/mL recombinant human VEGF165 (R&D Systems #293-VE-500) for 5 min, washed with cold PBS, and immediately lysed with 130 μL of cold IX lysis buffer [20 mM Tris, 137 mM sodium chloride, 2 mM EDTA, 10% glycerol, 1% NP-40 alternative, 1 mM activated sodium orthovanadate, 1 mM PefaBloc SC (Sigma-Aldrich #11429868001), protease/phosphatase inhibitor tablet (Thermo Fisher #A32959)]. Lysates were collected and 100 μL/well added into the human phospho-KDR DuoSet IC ELISA (R&D Systems #DYC 1766-2). Assay was performed according to manufacturer's instructions and sample phospho-KDR concentrations were extrapolated using human phospho-KDR control (R&D Systems #841421) as a standard. Positive control wells (100% activity) contained VEGF165-stimulated, DMSO-treated cell lysates. Negative control wells (0% activity) contained non-stimulated cell lysates. IC50 values were calculated by nonlinear regression analysis using a 4-parameter logistic curve fit in ActivityBase XE (IDBS).

[4] = microsomes, pH 7.4
Procedure: as §1, §2, §3, §4

[5] = microsomes, pH 7.4; remark: listed apart in the source
Procedure: as §1, §2, §3, §4

[6] = microsomes, pH 7.4; remark: listed apart in the source
Procedure: as §1, §2, §3, §4

AXL = biological target: T3, AXL (Homo sapiens, UniProt P30530); experiment: AXL autophosphorylation ELISA in A-172 cells; type: cell-based; settings: A-172 glioblastoma cells, Gas6-stimulated, phospho-AXL ELISA, 1 h compound incubation
T3 construct: host or cells: A-172 glioblastoma cells
T3 sequence (P30530 26-894): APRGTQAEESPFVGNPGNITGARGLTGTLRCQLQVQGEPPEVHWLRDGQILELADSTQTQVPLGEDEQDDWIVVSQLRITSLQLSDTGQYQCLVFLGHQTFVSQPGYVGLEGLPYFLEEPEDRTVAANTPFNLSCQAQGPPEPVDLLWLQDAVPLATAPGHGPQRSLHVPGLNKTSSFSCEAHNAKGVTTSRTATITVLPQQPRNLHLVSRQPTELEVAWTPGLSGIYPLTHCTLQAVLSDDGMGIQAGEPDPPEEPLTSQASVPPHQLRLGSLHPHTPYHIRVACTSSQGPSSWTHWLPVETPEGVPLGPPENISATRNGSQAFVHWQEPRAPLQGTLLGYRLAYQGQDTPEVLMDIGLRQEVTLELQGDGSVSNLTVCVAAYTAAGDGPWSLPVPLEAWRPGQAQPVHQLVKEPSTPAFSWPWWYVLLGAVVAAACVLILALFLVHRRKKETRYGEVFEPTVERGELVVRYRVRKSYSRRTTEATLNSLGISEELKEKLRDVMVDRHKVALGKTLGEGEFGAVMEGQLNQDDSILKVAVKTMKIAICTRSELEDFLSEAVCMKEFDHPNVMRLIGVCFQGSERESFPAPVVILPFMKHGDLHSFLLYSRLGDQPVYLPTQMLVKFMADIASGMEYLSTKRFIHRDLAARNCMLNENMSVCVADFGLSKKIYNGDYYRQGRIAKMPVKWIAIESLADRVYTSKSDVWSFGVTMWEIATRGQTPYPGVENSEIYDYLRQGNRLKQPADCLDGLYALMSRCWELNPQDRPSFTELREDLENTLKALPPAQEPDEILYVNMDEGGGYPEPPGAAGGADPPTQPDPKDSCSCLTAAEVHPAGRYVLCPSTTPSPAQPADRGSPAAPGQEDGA
Procedure: Example A: AXL Autophosphorylation ELISA in A-172 Cells
A-172 glioblastoma cells (ATCC #CRL-1620) were seeded at 2.5×10^5 cells/well onto 24-well plates (Greiner #662165), in DMEM (Thermo Fisher #11995-040) containing 10% FBS (Thermo Fisher #26140-079), 1% MEM NEAA (Thermo Fisher #11140-050), 1% GlutaMax (Thermo Fisher #35050-061), and 1% Penicillin Streptomycin (Thermo Fisher #15140-122). A-172 cells were incubated at 37° C., 5% CO2 for 24 h and then starved for 24 h in serum-free medium. Test compounds were serially diluted to produce an 8-point dose curve in fresh serum-free medium to a final concentration of 0.3% DMSO (vehicle) and added to the cells and incubated for 1 h. Cells were then stimulated with 1 μg/mL recombinant human Gas6 (R&D Systems #885-GSB-500) for 15 min, washed with cold PBS, and immediately lysed with 150 μL of cold IX lysis buffer [20 mM Tris, 137 mM sodium chloride, 2 mM EDTA, 10% glycerol, 1% NP-40 alternative, 1 mM activated sodium orthovanadate, 1 mM PefaBloc SC (Sigma-Aldrich #11429868001), protease/phosphatase inhibitor tablet (Thermo Fisher #A32959)]. Lysates were collected and 100 μL/well added into the human phospho-AXL DuoSet IC ELISA (R&D Systems #DYC2228-2). Assay was performed according to manufacturer's instructions and sample phospho-AXL concentrations were extrapolated using human phospho-AXL control (R&D Systems #841645) as a standard. Positive control wells (100% activity) contained Gas6-stimulated, DMSO-treated cell lysates. Negative control wells (0% activity) contained Gas6-stimulated, reference inhibitor-treated cell lysates. IC50 values were calculated by nonlinear regression analysis using a 4-parameter logistic curve fit in ActivityBase XE (IDBS).

T1 sequence (P08581 25-1390): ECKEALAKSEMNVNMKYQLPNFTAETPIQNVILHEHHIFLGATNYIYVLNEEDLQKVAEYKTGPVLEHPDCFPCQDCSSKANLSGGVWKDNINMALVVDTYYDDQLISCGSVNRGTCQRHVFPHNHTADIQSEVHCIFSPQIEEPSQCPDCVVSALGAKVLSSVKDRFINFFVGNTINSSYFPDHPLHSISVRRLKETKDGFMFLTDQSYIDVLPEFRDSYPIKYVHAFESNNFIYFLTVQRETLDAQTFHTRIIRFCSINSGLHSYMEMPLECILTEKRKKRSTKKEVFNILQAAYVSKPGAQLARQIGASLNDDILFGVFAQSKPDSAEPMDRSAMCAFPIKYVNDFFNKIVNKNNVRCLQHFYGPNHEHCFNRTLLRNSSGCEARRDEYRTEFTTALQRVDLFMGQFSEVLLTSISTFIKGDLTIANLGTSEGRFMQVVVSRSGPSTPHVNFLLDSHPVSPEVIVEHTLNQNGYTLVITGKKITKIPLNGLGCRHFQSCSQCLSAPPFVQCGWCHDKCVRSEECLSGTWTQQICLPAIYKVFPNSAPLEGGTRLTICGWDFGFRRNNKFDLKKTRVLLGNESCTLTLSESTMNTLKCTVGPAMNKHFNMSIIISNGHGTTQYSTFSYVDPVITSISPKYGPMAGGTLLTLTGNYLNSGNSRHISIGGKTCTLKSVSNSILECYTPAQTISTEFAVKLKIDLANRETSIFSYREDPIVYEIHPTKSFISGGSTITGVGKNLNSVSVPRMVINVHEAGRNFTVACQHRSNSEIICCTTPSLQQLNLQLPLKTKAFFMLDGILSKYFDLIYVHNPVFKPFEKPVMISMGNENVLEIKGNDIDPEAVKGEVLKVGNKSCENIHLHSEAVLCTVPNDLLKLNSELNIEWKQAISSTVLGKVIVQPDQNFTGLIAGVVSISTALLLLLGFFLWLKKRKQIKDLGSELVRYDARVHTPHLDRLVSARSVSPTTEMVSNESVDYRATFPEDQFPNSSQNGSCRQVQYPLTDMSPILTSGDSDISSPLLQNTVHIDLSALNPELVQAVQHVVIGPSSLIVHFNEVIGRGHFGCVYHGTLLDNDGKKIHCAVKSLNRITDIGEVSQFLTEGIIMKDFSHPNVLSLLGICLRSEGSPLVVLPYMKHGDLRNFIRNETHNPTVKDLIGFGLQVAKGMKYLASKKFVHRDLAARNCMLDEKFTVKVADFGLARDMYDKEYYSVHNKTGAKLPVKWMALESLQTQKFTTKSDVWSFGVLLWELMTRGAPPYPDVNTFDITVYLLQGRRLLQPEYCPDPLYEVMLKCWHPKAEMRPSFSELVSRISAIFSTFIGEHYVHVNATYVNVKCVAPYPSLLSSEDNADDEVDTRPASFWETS
T2 sequence (P35968 20-1356): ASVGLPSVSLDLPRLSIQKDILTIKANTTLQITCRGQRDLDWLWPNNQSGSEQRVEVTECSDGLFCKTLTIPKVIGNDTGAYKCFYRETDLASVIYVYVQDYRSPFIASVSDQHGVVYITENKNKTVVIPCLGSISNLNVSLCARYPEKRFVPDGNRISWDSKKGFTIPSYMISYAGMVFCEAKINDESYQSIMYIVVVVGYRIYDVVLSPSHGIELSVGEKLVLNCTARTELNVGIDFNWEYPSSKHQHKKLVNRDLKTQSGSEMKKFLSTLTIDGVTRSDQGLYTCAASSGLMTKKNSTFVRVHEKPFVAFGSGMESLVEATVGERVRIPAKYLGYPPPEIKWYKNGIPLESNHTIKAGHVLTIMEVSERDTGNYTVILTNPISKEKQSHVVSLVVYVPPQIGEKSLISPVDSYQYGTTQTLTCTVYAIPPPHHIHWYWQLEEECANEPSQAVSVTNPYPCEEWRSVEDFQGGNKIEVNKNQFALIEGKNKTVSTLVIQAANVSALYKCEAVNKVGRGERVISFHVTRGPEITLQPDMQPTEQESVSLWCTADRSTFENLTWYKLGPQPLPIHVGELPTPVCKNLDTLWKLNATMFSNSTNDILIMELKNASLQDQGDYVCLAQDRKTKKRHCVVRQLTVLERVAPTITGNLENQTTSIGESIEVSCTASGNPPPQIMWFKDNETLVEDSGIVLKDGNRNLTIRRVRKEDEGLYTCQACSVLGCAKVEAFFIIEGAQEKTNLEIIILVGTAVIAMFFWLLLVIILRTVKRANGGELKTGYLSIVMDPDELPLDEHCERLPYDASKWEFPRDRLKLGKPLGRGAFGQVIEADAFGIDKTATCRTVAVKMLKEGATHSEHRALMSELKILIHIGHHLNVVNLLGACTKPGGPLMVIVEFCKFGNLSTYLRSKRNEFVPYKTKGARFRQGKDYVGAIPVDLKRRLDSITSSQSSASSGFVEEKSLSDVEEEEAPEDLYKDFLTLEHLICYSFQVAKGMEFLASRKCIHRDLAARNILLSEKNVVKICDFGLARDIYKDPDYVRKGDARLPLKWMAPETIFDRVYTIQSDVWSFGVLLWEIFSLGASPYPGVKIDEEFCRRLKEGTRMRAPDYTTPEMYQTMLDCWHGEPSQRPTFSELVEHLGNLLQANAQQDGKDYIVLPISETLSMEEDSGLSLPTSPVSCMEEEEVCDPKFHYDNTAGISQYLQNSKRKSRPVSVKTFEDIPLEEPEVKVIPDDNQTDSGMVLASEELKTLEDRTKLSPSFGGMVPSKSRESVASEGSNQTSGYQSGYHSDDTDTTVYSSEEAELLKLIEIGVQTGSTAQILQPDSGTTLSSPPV

| Compound | half-life at 1 μM [1] | half-life at 1 μM [2] | half-life at 1 μM [3] | IC50 (Met) | IC50 (KDR) | Rat Liver Microsome Stability CLint (μL/min/million cells) [4] | Rat Liver Microsome Stability t½ [4] | Human Liver Microsome Stability CLint (μL/min/million cells) [5] | Human Liver Microsome Stability t½ [5] | Mouse Liver Microsome Stability CLint (μL/min/million cells) [6] | Mouse Liver Microsome Stability t½ [6] | IC50 (AXL) |
| --- | --- | --- | --- | --- | --- | --- | --- | --- | --- | --- | --- | --- |
| COc1cc2c(Oc3ccc(NC(=O)C4(C(=O)N(C)c5ccc(F)cc5)CC4)cc3F)ccnc2cc1OCCCN1CCOCC1 [Compound 11, N-(3-Fluoro-4-((6-methoxy-7-(3-morpholinopropoxy)quinolin-4-yl)oxy)phenyl)-N-(4-fluorophenyl)-N-methylcyclopropane-1,1-dicarboxamide] | 1.6 min | 7.3 min | 1.6 min | > 300 nM | > 300 nM | – | – | – | – | – | – | – |
| 1-N-[4-(6,7-Dimethoxyquinolin-4-yl)oxyphenyl]-1-N′-(4-fluorophenyl)-1-N′-(methoxymethyl)cyclopropane-1,1-dicarboxamide [Compound 49] | – | – | – | – | – | 1028 | 1.35 min | 1052 | 1.3 min | 928 | 1.49 min | – |
| COc1cc2nccc(Oc3ccc(NC(=O)C4(C(=O)N(C)c5ccc(F)cc5)CC4)cc3F)c2nc1OC [Compound 44, 1-N-[4-[(6,7-Dimethoxy-1,5-naphthyridin-4-yl)oxy]-3-fluorophenyl]-1-N′-(4-fluorophenyl)-1-N′-methylcyclopropane-1,1-dicarboxamide] | – | – | – | > 300 nM | > 300 nM | – | – | – | – | – | – | > 300 nM |
